Patent EP3586875A1, “STABILIZATION OF POLYSORBATE” (Lonza Limited, priority 2018, dated 2020)

Legend:
Format in all cases: physicochemical
[1] = HPLC-FMA (fluorescence micelle assay), polysorbate concentration after storage; settings: diluted to target 0.04% PS (w/v)
Procedure: (§1) Studies were performed to investigate oxidative degradation of PS20 and PS80 in aqueous solutions containing the antioxidants BHT or BHA. The following solutions were tested: • 1) polysorbate solutions of 10% (w/v) ± 0.02% (w/v) of the respective antioxidant, • 2) polysorbate solutions of 0.1% (w/v) ± 0.0002% (w/v) of the respective antioxidant. For solution 1), stabilized (containing the antioxidant BHT or BHA at a concentration of 0.2% (w/w)) and unstabilized (not containing any antioxidant) neat PS was diluted to a concentration of 10% (w/v) by adding 5 g of PS into a 50 mL volumetric flask and filling up to the 50 mL mark with H2O. The solution was stirred with a magnetic stirrer for about 20 minutes to ensure complete dissolution of PS. 5 ml of each solution was aliquoted into 6R vials. Each vial was closed with a stopper and a cap.
For solution 2), 50 micro L of the 10% (w/v) PS solutions were transferred into 6R vials and filled up with 4.95 mL H2O to a final concentration of 0.1% (w/v) PS.
(§2) Throughout the experiments, the solutions were subjected to three different conditions as follows: "T0": stored at -20°C for 7 weeks, "H2O2": stored at 25°C and 60% humidity for 7 weeks in the presence of hydrogen peroxide (H2O2) at a concentration of 10% (w/w) based on the molar ratio of used antioxidant. "Air": stored at 40°C and 75% humidity for 7 weeks and exposed to air (needle in vial stopper for free air exchange during incubation).
HPLC FMA was used to measure the concentration of polysorbate in solutions of 10% PS20 ± 0.02% (w/v) of the antioxidants BHT or BHA, solutions of 10% PS80 (w/v) ± 0.02% (w/v) of the antioxidants BHT or BHA, and solutions of 0.1% PS80 (w/v) ± 0.0002% (w/v) of the antioxidants BHT or BHA. Samples were diluted to the target concentration of 0.04% PS (w/v) prior to analysis.
The following HPLC fluorescence detector conditions were applied: Column: knitted reaction coil L x I.D. 20mx 0.25mm, volume 1.0mL SUPELCO, ambient temperature; injection volume: 10 micro L; flow: 1.5 mL/min; isocratic 2min (A: 0.15M sodium chloride, 0.05 M L-histidine, pH = 6, 5%(v/v) acetonitrile, 5 micro M N-phenyl-1-naphtylamine (NPN), 15 ppm Brij® 35); FLD: lambda excitation = 350 nm, lambda emission = 420 nm, data mode: emission.
Quantification of each sample type was performed by using 10% T0 samples for preparation of an external calibration curve from 0.02% to 0.06% PS.
Empower 2 was used as software for quantification.
The assay is based on the uptake of the fluorescent dye NPN by surfactant micelles using flow injection analysis and subsequent fluorescence detection. The dye is present in the mobile phase. In the lipophilic surrounding in the inside of the micelles the fluorescent signal is 10-fold higher than in aqueous mobile phase. Therefore, the concentration of polysorbate can be measured according to the formation of micelles and the uptake of the dye by the subsequent increase of the signal intensity.

[2] = LC-UV-MS quantification of 4HNE in PS80 solutions after storage; settings: 10% PS80; Air; 100-fold diluted; RL 50 micro M
Procedure: as §1, with “cap. […]” for “cap.”
LC-UV-MS was used to quantify 4HNE levels in solutions of 10% PS80 (w/v) ± 0.02% (w/v) of the antioxidants BHT or BHA. […]
Quantification of 4HNE was achieved by integration of the LC-UV signals (lambda = 220 nm) and using a calibration curve obtained from the integrated LC-UV signals (lambda = 220 nm) of the external reference 4HNE. As a reference standard aqueous 4HNE solutions with concentrations between 0.05 ppm and 1 ppm were prepared and directly analyzed by LC-UV-MS. […]

[3] = HS-GC-MS quantification of headspace hexanal in PS80 solutions after storage; settings: 10% PS80, RL of 100 ppb
Procedure: as §1, §2
GC-MS was used to quantify headspace hexanal levels for solutions of 10% PS (w/v) ± 0.02% (w/v) of the antioxidants BHT or BHA.
The following HS-GC-MS conditions were applied: Headspace oven: 10 min at 80°C, Column: Agilent HP-5MS, 30 m x 250 micro M x 0.25 micro M; GC oven: 3 min at 35°C, then 20°C/min to 320°C, then 10 min at 320°C; column flow: 1.3 mL/min; MS: Full scan, m/z = 35 - 300. As a reference standard aqueous toluene solutions with concentrations between 0.1 ppm and 1 ppm in 10 mL H2O were prepared and directly analyzed by HS-GC-MS.
1 mL of each sample was transferred into a headspace vial with a volume of 20 mL, closed, and analyzed directly.
Quantification was achieved by integration of the HS-GC-MS signals (TIC) and using a calibration curve obtained from the integrated HS-GC-MS signals (TIC) of the external reference toluene.
Tentative identification of degradants was performed by comparing the mass spectrum of each GC-MS signal against the NIST14 standard reference database.
The degradant most consistently identified by HS-GC-MS to show a value above the RL of 100 ppb was hexanal.

[4] = LC-UV-MS quantification of free fatty acids in polysorbate solutions after storage
Procedure: as §1, §2
LC-UV-MS was used to quantify FFA levels in solutions of 10% PS (w/v) ± 0.02% (w/v) of the antioxidants BHT or BHA. The FFAs lauric acid, myristic acid and palmitic acid were quantified for PS20-containing solutions and palmitic acid, stearic acid and oleic acid were quantified for PS80-containing solutions. The RL for all FFAs was 50000 ppb.
LC-UV-MS conditions were applied as in Example 2. Quantification of the FFAs was achieved by integration of the LC-MS signals at their corresponding ion trace (lauric acid = m/z 199.3; myristic acid = m/z 227.3; palmitic acid = m/z 255.3; stearic acid = m/z 283.3; oleic acid = m/z 281.3) in negative mode and using a calibration curve obtained from the integrated LC-MS signals of each corresponding ion trace of the external reference of lauric acid, myrisitic acid, palmitic acid, stearic acid and oleic acid. FFA reference standards in aqueous solutions at concentrations from 0.5 ppm to 5 ppm were prepared. All reference standard solutions were directly analyzed by LC-UV-MS.

| SMILES | X= calculated concentration in % of the average of 2 injections (polysorbate) ([1]; PS20 - 10%, Air) [%] | X= calculated concentration in % of the average of 2 injections (polysorbate) ([1]; PS80 - 0.1%, H2O2, RL 0.02%) [%] | X= calculated concentration in % of the average of 2 injections (polysorbate) ([1]; PS80 - 10%, Air, RL 0.02%) [%] | 4HNE measured [2] [micro M] | hexanal (headspace) ([3]; Air) | hexanal (headspace) ([3]; H2O2) | hexanal (headspace) ([3]; T0) | X = calculated fatty acid concentration in ppb, Lauric acid ([4]; PS20 - 10%, Air, RL 50000ppb) | X = calculated fatty acid concentration in ppb, Myristic acid ([4]; PS20 - 10%, Air, RL 50000ppb) | X = calculated fatty acid concentration in ppb, Oleic acid ([4]; PS80 - 10%, Air, RL 50000ppb) | X = calculated fatty acid concentration in ppb, Stearic acid ([4]; PS80 - 10%, Air, RL 50000ppb) | X = calculated fatty acid concentration in ppb, Lauric acid ([4]; 7 weeks, 0.02 % (w/v)) | X = calculated fatty acid concentration in ppb, Myristic acid ([4]; 7 weeks, 0.02 % (w/v)) | X = calculated fatty acid concentration in ppb, Oleic acid ([4]; 7 weeks, 0.02 % (w/v)) | X = calculated fatty acid concentration in ppb, Stearic acid ([4]; 7 weeks, 0.02 % (w/v)) |
| --- | --- | --- | --- | --- | --- | --- | --- | --- | --- | --- | --- | --- | --- | --- | --- |
| COc1ccc(O)c(C(C)(C)C)c1 [BHA, butylated hydroxyanisole] | ~0.04 | ~0.04 | ~0.04 | < 50 | no hexanal could be detected | no hexanal could be detected | no hexanal could be detected | below 200000 ppb | around 50000 ppb | around 200000 ppb | around 60000 ppb |  |  |  |  |
| Cc1cc(C(C)(C)C)c(O)c(C(C)(C)C)c1 [BHT, butylated hydroxytoluene] | ~0.04 | ~0.04 | ~0.04 | < 50 | no hexanal could be detected | no hexanal could be detected | no hexanal could be detected |  |  |  |  | below 200000 ppb | around 50000 ppb | around 100000 ppb | around 60000 ppb |
